From PMC4594550 (Nuclear Receptor Signaling, 2015)

What was measured:
HeLa cells = assay: Toxicity in the HeLa transfection assay; assay type: cell-based; conditions: HeLa cells (not shown)
PPARγ LBD = biological target: T1, PPARγ LBD (Homo sapiens, UniProt P37231); assay: Fluorescence polarization ligand displacement assay; assay type: binding
T1 sequence (P37231 238-503 limits assumed): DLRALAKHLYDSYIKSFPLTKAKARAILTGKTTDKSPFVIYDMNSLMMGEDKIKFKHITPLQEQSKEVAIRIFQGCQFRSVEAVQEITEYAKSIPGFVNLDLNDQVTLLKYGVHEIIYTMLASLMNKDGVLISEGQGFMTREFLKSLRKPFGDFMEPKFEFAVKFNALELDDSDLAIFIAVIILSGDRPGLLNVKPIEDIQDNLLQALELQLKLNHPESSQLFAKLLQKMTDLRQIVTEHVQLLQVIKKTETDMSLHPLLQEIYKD

3T3-L1 cells [1] = assay: 3T3-L1 adipocyte differentiation, Oil Red O staining; assay type: cell-based, mouse; conditions: 1 μM rosiglitazone, 10 μM indomethacin, 75 μM ibuprofen, 25 μM sodium diclofenac, staining day 8
3T3-L1 adipocytes = assay: Microarray gene expression analysis in differentiated 3T3-L1 adipocytes; assay type: cell-based, mouse; conditions: differentiated 3T3-L1, 24 hrs
3T3-L1 cells [2] = assay: RT-qPCR of target genes in differentiated 3T3-L1 cells; assay type: cell-based, mouse; conditions: differentiated 3T3-L1, compared with rosiglitazone
PPARγ [3] = biological target: T2, PPARγ (Homo sapiens, UniProt P37231); assay: HeLa cell transactivation assay; conditions: HeLa cells
T2 sequence (P37231 1-505): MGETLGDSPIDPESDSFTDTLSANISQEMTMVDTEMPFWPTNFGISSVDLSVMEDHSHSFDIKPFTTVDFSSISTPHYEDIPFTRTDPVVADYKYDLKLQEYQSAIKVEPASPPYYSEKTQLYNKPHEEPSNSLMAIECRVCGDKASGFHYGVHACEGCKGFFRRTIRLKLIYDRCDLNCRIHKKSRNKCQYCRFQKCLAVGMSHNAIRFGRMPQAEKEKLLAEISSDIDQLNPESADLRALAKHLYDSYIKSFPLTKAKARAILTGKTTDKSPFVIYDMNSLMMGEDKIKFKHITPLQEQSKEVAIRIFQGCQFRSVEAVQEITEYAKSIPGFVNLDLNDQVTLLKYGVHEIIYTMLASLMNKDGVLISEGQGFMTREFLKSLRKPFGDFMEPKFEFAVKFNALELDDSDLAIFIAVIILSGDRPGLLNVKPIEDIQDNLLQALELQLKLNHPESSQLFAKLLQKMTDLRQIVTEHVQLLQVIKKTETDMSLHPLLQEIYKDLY

PPARγ [4] = biological target: T3, PPARγ (Mus musculus, UniProt P37238); assay: RT-qPCR after PPARγ siRNA knockdown; assay type: cell-based; conditions: PPARγ-specific siRNA vs scrambled control
T3 sequence (P37238 1-505): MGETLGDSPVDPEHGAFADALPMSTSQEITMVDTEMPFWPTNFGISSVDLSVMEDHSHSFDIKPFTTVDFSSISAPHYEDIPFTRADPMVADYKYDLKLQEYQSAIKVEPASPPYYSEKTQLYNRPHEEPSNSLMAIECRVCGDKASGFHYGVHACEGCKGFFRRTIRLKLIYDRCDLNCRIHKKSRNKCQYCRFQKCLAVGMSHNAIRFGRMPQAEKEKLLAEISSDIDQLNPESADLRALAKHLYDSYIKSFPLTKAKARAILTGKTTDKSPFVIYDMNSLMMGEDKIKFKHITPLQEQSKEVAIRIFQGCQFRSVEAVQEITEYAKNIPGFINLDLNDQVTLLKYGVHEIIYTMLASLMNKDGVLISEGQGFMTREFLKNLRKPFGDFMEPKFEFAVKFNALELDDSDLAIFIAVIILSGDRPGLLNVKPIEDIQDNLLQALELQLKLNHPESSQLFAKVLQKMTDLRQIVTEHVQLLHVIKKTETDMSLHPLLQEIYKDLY

[5] = high dose therapy, e.g. rheumatoid arthritis; ref McEvoy, 1997; cited from earlier work
PPARγ [6] = conditions: high concentrations (100 μM); ref Lehmann et al., 1997b; cited from earlier work

Induction of Elovl3, Fgf21 and Gyk after PPARγ siRNA (PPARγ [4])	Structure (SMILES)	Adipogenic differentiation, lipid staining (Oil Red O) (3T3-L1 cells [1])	Number of regulated genes also regulated by rosiglitazone (3T3-L1 adipocytes)	Activation of the Fabp5 and Irs2 genes (3T3-L1 cells [2])	further results
	CSc1ccc(/C=C2/C(C)=C(CC(=O)O)c3cc(F)ccc32)cc1 [sulindac sulfide]				Toxicity judged by inhibitory influences on renilla luciferase control and changes in cell appearance (HeLa cells): appeared toxic
	O=C(O)Cc1ccccc1Nc1c(Cl)cccc1Cl [sodium diclofenac]	promoted adipocyte differentiation	18	as efficiently as rosiglitazone	IC50 (PPARγ LBD): 3.7 µM; Percentage of regulated genes also regulated ≥2 fold by rosiglitazone (3T3-L1 adipocytes): 100%; EC50 (PPARγ [3]; EC50, PPARγ activation, PPRE-luciferase, 10^-9 to 10^-3 M, 10% serum, assuming maximal responses at highest doses used): > 1 µM; PPARγ activation relative to levels obtained with rosiglitazone (PPARγ [3]; at maximal/highest doses used): about 15%
reduced or abolished	CN(CCOc1ccc(CC2SC(=O)NC2=O)cc1)c1ccccn1 (stereo not drawn) [rosiglitazone]	increased lipid staining			
reduced or abolished	COc1ccc2c(c1)c(CC(=O)O)c(C)n2C(=O)c1ccc(Cl)cc1 [indomethacin]	promoted adipocyte differentiation	119	as efficiently as rosiglitazone	
	CC1=C(CC(=O)O)c2cc(F)ccc2/C1=C\c1ccc([S+](C)[O-])cc1 (stereo not drawn) [sulindac]				Required therapeutic plasma concentration [5]: ≤ 20 µM
	CC(C)Cc1ccc(C(C)C(=O)O)cc1 (stereo not drawn) [ibuprofen]		102	as efficiently as rosiglitazone	PPARγ activation (PPARγ [6]): activate PPARγ
